Laboratory results: US20260374782A1, “NEW COMPOUNDS, PROCESSES FOR PREPARING THE SAME AND THEIR USE AS DRUGS” (B&A ONCOMEDICAL, priority 2022, published 2026)

Target: T1, NKCC1 (Homo sapiens, UniProt P55011)
T1 construct: endogenous in cells; host or cells: native HEK293 cells
T1 sequence (P55011 1-1212): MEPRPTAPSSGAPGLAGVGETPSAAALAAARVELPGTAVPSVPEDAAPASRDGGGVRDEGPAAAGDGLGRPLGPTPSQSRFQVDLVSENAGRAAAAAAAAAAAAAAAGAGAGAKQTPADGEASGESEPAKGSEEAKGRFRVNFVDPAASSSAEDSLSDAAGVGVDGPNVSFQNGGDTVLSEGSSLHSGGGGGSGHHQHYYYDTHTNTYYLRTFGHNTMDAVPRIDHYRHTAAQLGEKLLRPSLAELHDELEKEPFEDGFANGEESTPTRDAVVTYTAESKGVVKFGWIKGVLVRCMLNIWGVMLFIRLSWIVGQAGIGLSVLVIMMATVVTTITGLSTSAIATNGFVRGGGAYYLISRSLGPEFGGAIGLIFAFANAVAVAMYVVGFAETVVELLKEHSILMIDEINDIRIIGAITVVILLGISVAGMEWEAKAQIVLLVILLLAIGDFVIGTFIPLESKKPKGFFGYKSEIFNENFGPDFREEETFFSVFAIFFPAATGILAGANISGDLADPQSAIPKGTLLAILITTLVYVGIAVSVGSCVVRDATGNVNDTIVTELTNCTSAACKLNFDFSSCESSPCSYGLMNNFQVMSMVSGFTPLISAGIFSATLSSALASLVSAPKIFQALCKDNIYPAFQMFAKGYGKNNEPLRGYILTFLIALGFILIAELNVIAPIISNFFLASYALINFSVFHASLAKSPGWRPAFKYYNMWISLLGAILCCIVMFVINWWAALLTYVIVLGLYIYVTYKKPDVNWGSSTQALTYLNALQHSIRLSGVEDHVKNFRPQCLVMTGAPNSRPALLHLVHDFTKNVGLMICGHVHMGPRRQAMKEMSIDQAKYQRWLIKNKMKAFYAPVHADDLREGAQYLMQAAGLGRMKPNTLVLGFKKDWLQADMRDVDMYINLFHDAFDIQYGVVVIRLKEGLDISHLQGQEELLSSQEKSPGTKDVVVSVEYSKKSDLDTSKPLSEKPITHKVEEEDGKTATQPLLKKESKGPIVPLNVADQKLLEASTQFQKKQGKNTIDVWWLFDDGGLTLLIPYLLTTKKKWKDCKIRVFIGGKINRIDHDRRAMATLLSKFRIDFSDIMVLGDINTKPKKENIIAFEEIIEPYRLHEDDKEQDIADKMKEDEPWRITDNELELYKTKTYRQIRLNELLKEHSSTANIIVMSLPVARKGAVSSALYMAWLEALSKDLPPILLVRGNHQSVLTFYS
Assay: NKCC1-mediated K+ influx (83Rb tracer uptake) in native HEK293 cells, hypertonic saline, 100 μM ouabain
Type: cell-based
Settings: HEK293, no drug = 1000, 20 μM bumetanide = 0; for inhibition at 2 µM: read-out: NKCC1 mediated flux inhibition at 2 μM (%); for inhibition at 20 µM: read-out: NKCC1 mediated flux inhibition at 20 μM (%)
Method in brief: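 Native cells in slightly hypertonic saline with 100 μM ouabain; 15 min preincubation then 15 min 83Rb uptake (0.25 μCi/mL), scintillation counting normalized to protein. Compounds at 2 μM and 20 μM; flux scaled 1000 (no drug) to 0 (20 μM bumetanide), triplicate dishes.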

Compound | inhibition at 2 µM [%] | inhibition at 20 µM [%]
CCCCNc1cc(C(=O)O)cc(S(=N)(=O)N2Cc3ccccc3C2)c1Oc1ccccc1 (centres unmarked) [Compound 72, 3-(butylamino)-5-(isoindolin-2-ylsulfonimidoyl)-4-phenoxy-benzoic acid] | 50 to 75 | ≥ 75
CCCCNc1cc(C(=O)O)cc(S(=N)(=O)Nc2cnccn2)c1Oc1ccccc1 (centres unmarked) [Compound 73, 3-(butylamino)-4-phenoxy-5-[(pyrazin-2-ylamino)sulfonimidoyl]benzoic acid] | ≥ 75 | ≥ 75
CCCCNc1cc(C(=O)O)cc(S(=N)(=O)Nc2cccc(OC(F)F)c2)c1Oc1ccccc1 (centres unmarked) [Compound 74, 3-(butylamino)-5-[[3-(difluoromethoxy)anilino]sulfonimidoyl]-4-phenoxy-benzoic acid] | 50 to 75 | ≥ 75
CCCCNc1cc(C(=O)O)cc(S(=N)(=O)NC2CCOCC2)c1Oc1ccccc1 (centres unmarked) [Compound 75, 3-(butylamino)-4-phenoxy-5-[(tetrahydropyran-4-ylamino)sulfonimidoyl]benzoic acid] |  | 30 to 50
CCCCNc1cc(C(=O)O)cc(S(=N)(=O)Nc2ncccn2)c1Oc1ccccc1 (centres unmarked) [Compound 76, 3-(butylamino)-4-phenoxy-5-[(pyrimidin-2-ylamino)sulfonimidoyl]benzoic acid] | 10 to 30 | 50 to 75
CCCCNc1cc(C(=O)O)cc(S(=N)(=O)Nc2ccccc2Cl)c1Oc1ccccc1 (centres unmarked) [Compound 77, 3-(butylamino)-5-[(2-chloroanilino)sulfonimidoyl]-4-phenoxy-benzoic acid] | 30 to 50 | ≥ 75
CCCCNc1cc(C(=O)O)cc(S(=N)(=O)Nc2ccc(Cl)cc2)c1Oc1ccccc1 (centres unmarked) [Compound 78, 3-(butylamino)-5-[(4-chloroanilino)sulfonimidoyl]-4-phenoxy-benzoic acid] | 50 to 75 | ≥ 75
CCCCNc1cc(C(=O)O)cc(S(=N)(=O)NC2CCN(C)CC2)c1Oc1ccccc1 (centres unmarked) [Compound 79, 3-(butylamino)-5-[[(1-methyl-4-piperidyl)amino]sulfonimidoyl]-4-phenoxy-benzoic acid] | 30 to 50 | 50 to 75
CCCCNc1cc(C(=O)O)cc(S(=N)(=O)Nc2cncnc2)c1Oc1ccccc1 (centres unmarked) [Compound 80, 3-(butylamino)-4-phenoxy-5-[(pyrimidin-5-ylamino)sulfonimidoyl]benzoic acid] | 30 to 50 | ≥ 75
CCCCNc1cc(C(=O)O)cc(S(=N)(=O)NCCc2ccccc2)c1Oc1ccccc1 (centres unmarked) [Compound 81, 3-(butylamino)-4-phenoxy-5-[(2-phenylethylamino)sulfonimidoyl]benzoic acid] | 30 to 50 | ≥ 75
CCCCNc1cc(C(=O)O)cc(S(=N)(=O)NCCc2cccc(Cl)c2)c1Oc1ccccc1 (centres unmarked) [Compound 82, 3-(butylamino)-5-[[2-(3-chlorophenyl)ethylamino]sulfonimidoyl]-4-phenoxy-benzoic acid] | 10 to 30 | ≥ 75
CCCCNc1cc(C(=O)O)cc(S(=N)(=O)NCc2cccnc2)c1Oc1ccccc1 (centres unmarked) [Compound 83, 3-(butylamino)-4-phenoxy-5-[(3-pyridylmethylamino)sulfonimidoyl]benzoic acid] | 30 to 50 | ≥ 75
CCCCNc1cc(C(=O)O)cc(S(=N)(=O)NCCc2cccnc2)c1Oc1ccccc1 (centres unmarked) [Compound 84, 3-(butylamino)-4-phenoxy-5-[[2-(3-pyridyl)ethylamino]sulfonimidoyl]benzoic acid] | 10 to 30 | ≥ 75
CCCCNc1cc(C(=O)O)cc(S(=N)(=O)NCc2nccs2)c1Oc1ccccc1 (centres unmarked) [Compound 85, 3-(butylamino)-4-phenoxy-5-[(thiazol-2-ylmethylamino)sulfonimidoyl]benzoic acid] | 30 to 50 | ≥ 75
CCCCNc1cc(C(=O)O)cc(S(=N)(=O)NCCc2nccs2)c1Oc1ccccc1 (centres unmarked) [Compound 86, 3-(butylamino)-4-phenoxy-5-[(2-thiazol-2-ylethylamino)sulfonimidoyl]benzoic acid] | 50 to 75 | ≥ 75
CCCCNc1cc(C(=O)O)cc(S(=N)(=O)NCc2ccn(C)n2)c1Oc1ccccc1 (centres unmarked) [Compound 87, 3-(butylamino)-5-[[(1-methylpyrazol-3-yl)methylamino]sulfonimidoyl]-4-phenoxy-benzoic acid] | 50 to 75 | ≥ 75
CCCCNc1cc(C(=O)O)cc(S(=N)(=O)Nc2nccn2C)c1Oc1ccccc1 (centres unmarked) [Compound 88, 3-(butylamino)-5-[[(1-methylimidazol-2-yl)amino]sulfonimidoyl]-4-phenoxy-benzoic acid] |  | 50 to 75
CCCCNc1cc(C(=O)O)cc(S(=N)(=O)Nc2ccccn2)c1Oc1ccccc1 (centres unmarked) [Compound 89, 3-(butylamino)-4-phenoxy-5-[(2-pyridylamino)sulfonimidoyl]benzoic acid] | 30 to 50 | ≥ 75
CCCCNc1cc(C(=O)O)cc(S(=N)(=O)Nc2nccs2)c1Oc1ccccc1 (centres unmarked) [Compound 90, 3-(butylamino)-4-phenoxy-5-[(thiazol-2-ylamino)sulfonimidoyl]benzoic acid] | 30 to 50 | ≥ 75
CCCCNc1cc(C(=O)O)cc(S(=N)(=O)Nc2ccncc2)c1Oc1ccccc1 (centres unmarked) [Compound 91, 3-(butylamino)-4-phenoxy-5-[(4-pyridylamino)sulfonimidoyl]benzoic acid] | 30 to 50 | ≥ 75
CCCCNc1cc(C(=O)O)cc(S(=N)(=O)NC2CCN(C(C)=O)CC2)c1Oc1ccccc1 (centres unmarked) [Compound 92, 3-[[(1-acetyl-4-piperidyl)amino]sulfonimidoyl]-5-(butylamino)-4-phenoxy-benzoic acid] | 10 to 30 | 50 to 75
CCCCNc1cc(C(=O)O)cc(S(=N)(=O)Nc2ccnnc2)c1Oc1ccccc1 (centres unmarked) [Compound 93, 3-(butylamino)-4-phenoxy-5-[(pyridazin-4-ylamino)sulfonimidoyl]benzoic acid] | 30 to 50 | ≥ 75
CCCCNc1cc(C(=O)O)cc(S(=N)(=O)NCCCC)c1Oc1ccccc1 (centres unmarked) [Compound 94, 3-(butylamino)-5-(butylaminosulfonimidoyl)-4-phenoxy-benzoic acid] | 50 to 75 | ≥ 75
CCCCNc1cc(C(=O)O)cc(S(=N)(=O)NC23CC(C2)C3)c1Oc1ccccc1 (centres unmarked) [Compound 95, 3-[(1-bicyclo[1.1.1]pentanylamino)sulfonimidoyl]-5-(butylamino)-4-phenoxy-benzoic acid] | 30 to 50 | 30 to 50
CCCCNc1cc(C(=O)O)cc(S(=N)(=O)NC2CN3CCC2CC3)c1Oc1ccccc1 (centres unmarked) [Compound 96, 3-(butylamino)-4-phenoxy-5-[(quinuclidin-3-ylamino)sulfonimidoyl]benzoic acid] | 30 to 50 | 30 to 50
CCCCNc1cc(C(=O)O)cc(S(=N)(=O)NCC2CCN(C(C)=O)CC2)c1Oc1ccccc1 (centres unmarked) [Compound 97, 3-[[(1-acetyl-4-piperidyl)methylamino]sulfonimidoyl]-5-(butylamino)-4-phenoxy-benzoic acid] | 30 to 50 | ≥ 75
CCCCNc1cc(C(=O)OC)cc(S(=O)(=Nc2ccccc2)N2CCCCCC2)c1Oc1ccccc1 (stereo not drawn) [Compound 99, methyl 3-[S-(azepan-1-yl)-N-phenyl-sulfonimidoyl]-5-(butylamino)-4-phenoxy-benzoate] | 30 to 50 | 10 to 30
CCCCNc1cc(C(=O)O)cc(S(=O)(=NC)N(C)CC)c1Oc1ccccc1 (stereo not drawn) [Compound 100, 3-(butylamino)-5-[S-[ethyl(methyl)amino]-N-methyl-sulfonimidoyl]-4-phenoxybenzoic acid] |  | 30 to 50
